Measured values as given in article PMC5706100 (Theranostics, 2017).
Positions of bridges follow the written chain, without caps; N, C: chain ends. No end group written: not given here.

Experiments:
EAhy926 cells = test: Immunofluorescence staining of FITC-GEBP11 in hypoxia-treated cells; assay type: cell-based; conditions: FITC-labelled peptide, after hypoxia treatment
[1] = tested on: CD31-positive plaque neovascularization; test: Immunofluorescence of FITC-GEBP11 and CD31 in plaque tissue sections; design: species or system rabbit

CTKNSYLMC (disulfide 1-9 (inferred)) [GEBP11 peptide]
binding affinity to EAhy926 cells (EAhy926 cells): high binding affinity
cell selectivity by immunofluorescence staining ([1]; endothelial cells versus macrophages): selectively target endothelial cells rather than macrophages
co-localization with CD31 in plaque section ([1]; rabbit plaque tissue sections, confocal microscopy): well co-localized with CD31-positive plaque neovascularization and vasa vasorum
